The values below are quoted from earlier work in patent publication US8951728B2, “Template directed split and mix synthesis of small molecule libraries” (ChemGene Holding ApS, priority 2004, dated 2015).

The target of the data set is alphaV/beta3 integrin receptor (Homo sapiens, UniProt P05106+P06756).
Sequence of alphaV/beta3 integrin receptor (P06756 31-889 limits assumed): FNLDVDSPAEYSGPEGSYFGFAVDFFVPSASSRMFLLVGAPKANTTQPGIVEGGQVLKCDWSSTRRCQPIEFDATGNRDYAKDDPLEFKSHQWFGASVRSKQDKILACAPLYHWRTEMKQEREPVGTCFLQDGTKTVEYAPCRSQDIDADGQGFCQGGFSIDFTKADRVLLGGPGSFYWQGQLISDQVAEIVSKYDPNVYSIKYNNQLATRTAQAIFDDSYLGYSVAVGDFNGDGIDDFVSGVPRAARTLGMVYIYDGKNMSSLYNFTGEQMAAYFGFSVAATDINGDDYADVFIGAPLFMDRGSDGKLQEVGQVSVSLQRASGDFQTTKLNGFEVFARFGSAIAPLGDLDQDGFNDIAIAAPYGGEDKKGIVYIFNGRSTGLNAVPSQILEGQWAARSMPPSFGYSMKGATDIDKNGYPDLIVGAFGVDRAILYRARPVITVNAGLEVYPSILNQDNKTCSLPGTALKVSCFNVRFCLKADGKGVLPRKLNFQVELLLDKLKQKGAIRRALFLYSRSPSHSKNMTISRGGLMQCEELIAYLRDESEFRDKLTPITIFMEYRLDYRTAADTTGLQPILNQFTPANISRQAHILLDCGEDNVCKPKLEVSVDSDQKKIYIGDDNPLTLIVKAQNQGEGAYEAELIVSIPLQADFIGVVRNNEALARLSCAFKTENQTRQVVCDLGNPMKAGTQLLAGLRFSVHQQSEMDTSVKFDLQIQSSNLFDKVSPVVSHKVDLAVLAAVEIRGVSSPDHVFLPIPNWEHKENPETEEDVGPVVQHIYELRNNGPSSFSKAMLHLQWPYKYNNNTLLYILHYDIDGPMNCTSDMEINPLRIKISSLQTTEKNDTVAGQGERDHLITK
Sequence of alphaV/beta3 integrin receptor (P06756 891-1048 limits assumed): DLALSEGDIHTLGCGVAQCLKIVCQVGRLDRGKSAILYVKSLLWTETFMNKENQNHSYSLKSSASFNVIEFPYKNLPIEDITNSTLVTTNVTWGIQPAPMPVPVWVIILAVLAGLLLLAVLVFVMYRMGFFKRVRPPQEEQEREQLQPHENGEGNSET
Sequence of alphaV/beta3 integrin receptor (P05106 27-788): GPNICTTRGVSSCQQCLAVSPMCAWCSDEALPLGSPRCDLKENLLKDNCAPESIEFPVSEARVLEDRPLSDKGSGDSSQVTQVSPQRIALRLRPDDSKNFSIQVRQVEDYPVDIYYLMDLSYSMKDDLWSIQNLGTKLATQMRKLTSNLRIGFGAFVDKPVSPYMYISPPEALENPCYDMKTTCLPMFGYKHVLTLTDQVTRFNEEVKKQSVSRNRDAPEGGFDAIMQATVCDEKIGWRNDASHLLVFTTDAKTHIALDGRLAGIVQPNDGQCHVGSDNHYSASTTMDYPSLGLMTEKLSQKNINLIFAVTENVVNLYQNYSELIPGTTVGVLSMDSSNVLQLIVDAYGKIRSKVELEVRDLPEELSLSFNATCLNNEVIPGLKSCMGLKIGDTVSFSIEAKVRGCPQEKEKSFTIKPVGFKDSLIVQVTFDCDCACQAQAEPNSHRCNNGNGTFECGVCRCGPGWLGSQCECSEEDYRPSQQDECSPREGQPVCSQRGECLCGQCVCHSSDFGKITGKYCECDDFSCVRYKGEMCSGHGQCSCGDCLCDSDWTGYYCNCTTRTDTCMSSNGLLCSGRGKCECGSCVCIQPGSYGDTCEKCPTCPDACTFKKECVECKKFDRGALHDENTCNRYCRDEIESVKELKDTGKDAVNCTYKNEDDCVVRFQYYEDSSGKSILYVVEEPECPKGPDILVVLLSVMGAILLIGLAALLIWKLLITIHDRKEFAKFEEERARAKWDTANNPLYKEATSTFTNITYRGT

Regarding `O=C(O)CC(NC(=O)CNC(=O)CCCc1ccc2c(n1)NCCC2)C(=O)O` (centres unmarked) [Feuston 5], the “affinity compared to the RGD-tripeptide” value is on record as “ten-fold increased affinity”. Also, the Kd (in general, the equilibrium constant for the complex coming apart) (Feuston et al., J Med. Chem. 2002) was 111 nM.
